{"source": "patent US6486127B1", "about": "“Compositions comprising D-chiro inositol and lipid lowering compounds and methods of treatment thereof” (Insmed, Incorporated, priority 2001, dated 2002)", "key": {"[1]": {"assay": "Randomized placebo-controlled clinical trial of D-chiro-inositol with sulfonylureas: glycemic markers (HbA1c, fructosamine, fasting glucose)", "type": "in vivo, human", "details": "for Difference in HbA1c change between D-chiro-inositol and placebo: baseline to endpoint", "method": "The objective of this study was to assess the efficacy and safety of D-chiro-inositol when administered as a single oral dose of 1200 mg/day compared to placebo, each in combination with sulfonylureas, for 3 months. Patients were required to have been on sulfonylureas for 3 months prior to study entry without reaching their target dose or with a suboptimal response.\n(§1) This multicenter, double-blind, parallel-group, placebo-controlled, randomized, fixed-dose clinical study was designed to evaluate 1200 mg/day D-chiro-inositol versus placebo in 270 obese patients with type 2 diabetes mellitus who had been receiving sulfonylureas for at least 3 months without reaching their target or with suboptimal response.\n(§2) The study involved 5 scheduled visits. The first visit was the screening visit, followed by a baseline visit up to 2 weeks later. Patients were randomized at the baseline visit, half to 1200 mg/day D-chiro-inositol and half to placebo, and subsequently began 13 weeks of treatment with blinded study medication. There were 3 visits for safety and efficacy assessments, at 4, 8, and 13 weeks after beginning treatment. The 13-week visit was the final visit. Patients arrived at the investigational site in a fasted state for all visits. Assessments were to be done at the same time of day at each visit by the same responsible personnel. Medication was taken once a day at the same time of morning, except on visit days, on which the dose was delayed until just after fasting blood samples had been collected.\nPatients receiving D-chiro-inositol received four 300 mg capsules once daily for a total daily dose of 1200 mg; placebo patients took 4 placebo capsules once daily. Doses were taken orally, generally in the mornings. Patients were instructed to take their dose in the morning at the same time each day, except on visit days. On visit days, dosing was to be done at the clinic. No instructions were given regarding when to take medication in relation to meals on non-visit days.\n(§3) Biomarkers: A meal tolerance test (MTT) was performed at baseline (Visit 2) and the final visit (Visit 5). In addition, blood was drawn at every visit for assessment of fasting glucose and insulin, HbA1c, C-peptide, fructosamine, FFA, triglycerides, total cholesterol, HDL, VLDL, LDL, and Apo-B levels.\nPrimary Efficacy Variable(s) and Analyses. The primary analysis was based on the change from baseline to endpoint in HbA1c level using the modified ITT and evaluable study populations. The analysis was done using an analysis of covariance (ANCOVA) model with treatment group and the baseline HbA1c value as predictors.\nSecondary Efficacy Variable (s) and Analyses. Since all secondary efficacy parameters were continuous, they were analyzed in the same manner as described above for the primary efficacy parameter, with treatment group and baseline values for the relevant parameter used as predictors."}, "[2]": {"assay": "Same clinical trial: insulin during meal tolerance test (MTT)", "type": "in vivo, human", "method": "Changes in area-under-the-curve (AUC) and 120-minute insulin and glucose levels during the mcal tolerance test (MTT).\nas §1, §2, §3\n(§4) Secondary Efficacy Variable (s) and Analyses. Since all secondary efficacy parameters were continuous, they were analyzed in the same manner as described above for the primary efficacy parameter, with treatment group and baseline values for the relevant parameter used as predictors. These secondary efficacy parameters included:\nAUC (and 120-minute) insulin and glucose levels during the MTT;"}, "[3]": {"assay": "Same clinical trial: fasting serum lipids (cholesterol, LDL, Apo-B, FFA)", "type": "in vivo, human", "method": "Changes in levels of triglycerides, total cholesterol, high-density lipoproteins (HDL), low-density lipoproteins (LDL), very-low-density lipoproteins (VLDL), apolipoprotein B (Apo-B), and free fatty acids (FFA).\nas §1, §2, §3, §4\nTotal cholesterol, triglycerides, HDL, LDL, VLDL, Apo-B, and FFA levels;"}, "[4]": {"assay": "Subgroup analysis of the clinical trial: lipid lowering drug / D-chiro-inositol effects on LDL cholesterol", "type": "in vivo, human", "details": "type 2 diabetic patients on sulfonylurea, with or without lipid lowering medication", "method": "Due to the observation of lipid lowering effects seen in the DCI group, the clinical trial described in EXAMPLE 1 was further analyzed for synergistic interactions between D-chiro-inositol and lipid lowering medications. Certain patients within the trial were treated according to standard of care with HMC-CoA inhibitors (LIPITOR®, LESCOL®, ZOCOR®, MEVACOR®, PRAVACHOL®), gemfibrozil, or a combination of HMC-CoA and gemfibrozil. No inclusion or exclusion criteria were established for the efficacy of the lipid lowering drug efficacy in the patient population. As stated supra, these patients were being sub optimally treated with a sulfonylurea prior to beginning the clinical trial. The patients could not change their lipid lowering dose and/or regimen during the length of the study."}, "[5]": {"details": "streptozotocin-treated rats, obese Zucker rats, or normal rats given a glucose load; cited from earlier work"}, "[6]": {"details": "oral or intravenous route; cited from earlier work"}, "[7]": {"details": "evaluable patients with FPG ≦ 180 mg/dL"}, "[8]": {"details": "patients with FPG ≦ 180 mg/dL, 1200 mg/day oral plus sulfonylurea"}, "[9]": {"details": "MTT, evaluable patients with FPG ≦ 180 mg/dL"}, "[10]": {"details": "MTT, evaluable patients, 1200 mg/day plus sulfonylurea"}, "[11]": {"details": "evaluable patients, 1200 mg/day plus sulfonylurea"}}, "note": "Entries after “also recorded” stand apart in the source; their conditions may differ."}
{"smiles": "OC1C(O)C(O)C(O)C(O)C1O", "note": "[D-chiro-inositol]", "values": [{"measurement": "Fasting glucose, mean change", "setting": "[1]; [7]", "result": 12.67, "unit": "mg/dL"}, {"measurement": "Fructosamine, mean change", "setting": "[1]; [7]", "result": -15.22, "unit": "µmol/L"}, {"measurement": "Decrease in mean HbA1c level from baseline to endpoint", "setting": "[1]; evaluable patients with FPG≦180 mg/dL, stated as a decrease", "result": 0.53, "unit": "%"}, {"measurement": "Mean change in HbA1c from baseline to endpoint, mean (SD)", "setting": "[1]; evaluable patients, LOCF at endpoint (13 weeks), 1200 mg/day oral plus sulfonylurea", "result": "−0.16 (1.03) %"}, {"measurement": "Difference in HbA1c change between D-chiro-inositol and placebo", "setting": "[1]; evaluable population", "result": 0.36, "unit": "%"}, {"measurement": "Decrease in mean fructosamine levels", "setting": "[1]; evaluable population, p=0.159 vs placebo", "result": 5.32, "unit": "µmol/L"}, {"measurement": "Decrease in mean HbA1c levels from baseline to endpoint", "setting": "[1]; evaluable population, stated as a decrease", "result": 0.16, "unit": "%"}, {"measurement": "Mean change in HbA1c from baseline to endpoint, mean (SD)", "setting": "[1]; patients with FPG ≦ 180 mg/dL, LOCF at endpoint, 1200 mg/day oral plus sulfonylurea", "result": "−0.53 (1.03) %"}, {"measurement": "Mean change in HbA1c from baseline to Week 4, mean (SD)", "setting": "[1]; [8]", "result": "−0.47 (0.68) %"}, {"measurement": "Mean change in HbA1c from baseline to Week 8, mean (SD)", "setting": "[1]; [8]", "result": "−0.57 (0.82) %"}, {"measurement": "Difference in HbA1c change between D-chiro-inositol and placebo", "setting": "[1]; patients with FPG≦180 mg/dL", "result": 0.80, "unit": "%"}, {"measurement": "Change in insulin AUC from baseline to endpoint, median of individual subjects (FIG. 2)", "setting": "[2]; DCI+SU group", "result": "slightly increased the insulin AUC"}, {"measurement": "120-min. insulin, mean change", "setting": "[2]; [9]", "result": 5.09, "unit": "μU/mL"}, {"measurement": "AUC insulin, mean change", "setting": "[2]; [9]", "result": 1070.8, "unit": "μU/mL·hr"}, {"measurement": "120-min. insulin, mean change at endpoint", "setting": "[2]; [10]", "result": 3.50, "unit": "μU/mL"}, {"measurement": "AUC insulin, mean change at endpoint", "setting": "[2]; [10]", "result": 484.4, "unit": "μU/mL·hr"}, {"measurement": "Insulin response to meal tolerance test over the treatment period (FIGS. 1A, 1B)", "setting": "[2]; subjects with fasting blood glucose ≦180 mg/dl, DCI+SU, 13 weeks, listed as DCI", "result": "maintained this response after the 13 week course of treatment; also recorded: maintains a constant insulin response over the testing period"}, {"measurement": "Apo-B, mean change", "setting": "[3]; [7]", "result": -4.00, "unit": "mg/dL"}, {"measurement": "Cholesterol, mean change", "setting": "[3]; [7]", "result": -5.31, "unit": "mg/dL"}, {"measurement": "LDL, mean change", "setting": "[3]; [7]", "result": -4.14, "unit": "mg/dL"}, {"measurement": "Decrease in LDL", "setting": "[3]; evaluable patients with FPG>180 mg/dL, p=0.036 vs placebo", "result": 2.02, "unit": "mg/dL"}, {"measurement": "Apo-B, mean change at endpoint", "setting": "[3]; [11]", "result": -1.26, "unit": "mg/dL"}, {"measurement": "Cholesterol, mean change at endpoint", "setting": "[3]; [11]", "result": -2.74, "unit": "mg/dL"}, {"measurement": "FFA, mean change at endpoint", "setting": "[3]; [11]", "result": "−0.07", "unit": "mEq/L"}, {"measurement": "LDL, mean change at endpoint", "setting": "[3]; [11]", "result": -2.95, "unit": "mg/dL"}, {"measurement": "Effect on LDL cholesterol (FIG. 3)", "setting": "[4]", "result": "significantly reduced the increase of LDL cholesterol"}, {"measurement": "Glycemic control", "setting": "[5]", "result": "significantly improved glyceimic control"}, {"measurement": "Disappearance rate of plasma glucose and insulin", "setting": "[6]", "result": "significantly increased the disappearance rate of both plasma glucose and insulin"}]}
